Test results taken from PubChem BioAssay AID1963972 (Molecular Pharmacology Branch, DTP, NCI, 2024).

Tested on: 945468-187-T-J2-PDC spheroids viability
Assay: Anticancer human tumor 945468-187-T-J2-PDC patient-derived rectal carcinoma cell line growth inhibition [PI3K]
Conditions: spheroids with HUVEC and MSC; for IC50: curve of first compound; for viability, T/C: stronger effect = lower value
Method in brief: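 Multi-cell spheroids combine tumor cells with HUVEC and human MSCs, treated with targeted agents alone or with inavolisib, alpelisib, duvelisib or copanlisib. Concentrations fall in half-log steps from at or near clinical Cmax, or from 10 microM where Cmax is unknown; viability read-out.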

[1] = second compound 0.00316 µM, first compound 0.0316 µM
[2] = second compound 0.00316 µM, first compound 0.1 µM
[3] = second compound 0.00316 µM, first compound 0.316 µM
[4] = second compound 0.00316 µM, first compound 1 µM
[5] = second compound 0.01 µM, first compound 0.0316 µM
[6] = second compound 0.01 µM, first compound 0.1 µM
[7] = second compound 0.01 µM, first compound 0.316 µM
[8] = second compound 0.01 µM, first compound 1 µM
[9] = second compound 0.0316 µM, first compound 0.0316 µM
[10] = second compound 0.0316 µM, first compound 0.1 µM
[11] = second compound 0.0316 µM, first compound 0.316 µM
[12] = second compound 0.0316 µM, first compound 1 µM
[13] = second compound 0.1 µM, first compound 0.0316 µM
[14] = second compound 0.1 µM, first compound 0.1 µM
[15] = second compound 0.1 µM, first compound 0.316 µM
[16] = second compound 0.1 µM, first compound 1 µM
[17] = second compound 0.316 µM, first compound 0.0316 µM
[18] = second compound 0.316 µM, first compound 0.1 µM
[19] = second compound 0.316 µM, first compound 0.316 µM
[20] = second compound 0.316 µM, first compound 1 µM
[21] = second compound 1 µM, first compound 0.0316 µM
[22] = second compound 1 µM, first compound 0.1 µM
[23] = second compound 1 µM, first compound 0.316 µM
[24] = second compound 1 µM, first compound 1 µM
[25] = second compound 0.00316 µM, first compound 3.16 µM
[26] = second compound 0.00316 µM, first compound 10 µM
[27] = second compound 0.01 µM, first compound 3.16 µM
[28] = second compound 0.01 µM, first compound 10 µM
[29] = second compound 0.0316 µM, first compound 3.16 µM
[30] = second compound 0.0316 µM, first compound 10 µM
[31] = second compound 0.1 µM, first compound 3.16 µM
[32] = second compound 0.1 µM, first compound 10 µM
[33] = second compound 0.316 µM, first compound 3.16 µM
[34] = second compound 0.316 µM, first compound 10 µM
[35] = second compound 1 µM, first compound 3.16 µM
[36] = second compound 1 µM, first compound 10 µM
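Further: spheroids exposed to compounds for seven days before reading.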

## CCN1CCN(Cc2ccc(Nc3ncc(F)c(-c4cc(F)c5nc(C)n(C(C)C)c5c4)n3)nc2)CC1 + CC(Nc1ccc2c(c1)OCCn1cc(N3C(=O)OCC3C(F)F)nc1-2)C(N)=O
Second compound 0.00316 µM
  IC50: > 1 µM
Second compound 0.01 µM
  IC50: > 1 µM
Second compound 0.0316 µM
  IC50: > 1 µM
Second compound 0.1 µM
  IC50: > 1 µM
Second compound 0.316 µM
  IC50: 0.712 µM
Second compound 1 µM
  IC50: 0.332 µM
Second compound 0.00316 µM, first compound 0.00316 µM
  viability, T/C: 113%
Second compound 0.00316 µM, first compound 0.01 µM
  viability, T/C: 93.7%
[1]
  viability, T/C: 88.2%
[2]
  viability, T/C: 101%
[3]
  viability, T/C: 82.7%
[4]
  viability, T/C: 73.2%
Second compound 0.01 µM, first compound 0.00316 µM
  viability, T/C: 95.2%
Second compound 0.01 µM, first compound 0.01 µM
  viability, T/C: 96.7%
[5]
  viability, T/C: 90.9%
[6]
  viability, T/C: 102%
[7]
  viability, T/C: 143%
[8]
  viability, T/C: 71.3%
Second compound 0.0316 µM, first compound 0.00316 µM
  viability, T/C: 99%
Second compound 0.0316 µM, first compound 0.01 µM
  viability, T/C: 95.1%
[9]
  viability, T/C: 95.2%
[10]
  viability, T/C: 117%
[11]
  viability, T/C: 111%
[12]
  viability, T/C: 74.7%
Second compound 0.1 µM, first compound 0.00316 µM
  viability, T/C: 91.8%
Second compound 0.1 µM, first compound 0.01 µM
  viability, T/C: 91.3%
[13]
  viability, T/C: 94.3%
[14]
  viability, T/C: 79.3%
[15]
  viability, T/C: 94.1%
[16]
  viability, T/C: 59.1%
Second compound 0.316 µM, first compound 0.00316 µM
  viability, T/C: 78.2%
Second compound 0.316 µM, first compound 0.01 µM
  viability, T/C: 79.8%
[17]
  viability, T/C: 75.6%
[18]
  viability, T/C: 71.1%
[19]
  viability, T/C: 83.8%
[20]
  viability, T/C: 38.4%
Second compound 1 µM, first compound 0.00316 µM
  viability, T/C: 79.7%
Second compound 1 µM, first compound 0.01 µM
  viability, T/C: 67.2%
[21]
  viability, T/C: 83.4%
[22]
  viability, T/C: 82.4%
[23]
  viability, T/C: 51%
[24]
  viability, T/C: 28.2%

## Cn1ncc(Cl)c1-c1cc(C(=O)NC(CN)Cc2cccc(F)c2)sc1Cl (stereo unspecified) + CC(Nc1ccc2c(c1)OCCn1cc(N3C(=O)OCC3C(F)F)nc1-2)C(N)=O
Second compound 0.00316 µM
  IC50: > 10 µM
Second compound 0.01 µM
  IC50: > 10 µM
Second compound 0.0316 µM
  IC50: > 10 µM
Second compound 0.1 µM
  IC50: > 10 µM
Second compound 0.316 µM
  IC50: > 10 µM
Second compound 1 µM
  IC50: > 10 µM
[1]
  viability, T/C: 82%
[2]
  viability, T/C: 76.6%
[3]
  viability, T/C: 66.5%
[4]
  viability, T/C: 70%
[25]
  viability, T/C: 58.5%
[26]
  viability, T/C: 73.8%
[5]
  viability, T/C: 80.1%
[6]
  viability, T/C: 75.4%
[7]
  viability, T/C: 95.7%
[8]
  viability, T/C: 75.8%
[27]
  viability, T/C: 66.7%
[28]
  viability, T/C: 95.7%
[9]
  viability, T/C: 99.8%
[10]
  viability, T/C: 88.3%
[11]
  viability, T/C: 95.9%
[12]
  viability, T/C: 71.6%
[29]
  viability, T/C: 62.3%
[30]
  viability, T/C: 96%
[13]
  viability, T/C: 93.2%
[14]
  viability, T/C: 86.1%
[15]
  viability, T/C: 78.4%
[16]
  viability, T/C: 71.8%
[31]
  viability, T/C: 62.2%
[32]
  viability, T/C: 81.5%
[17]
  viability, T/C: 70.6%
[18]
  viability, T/C: 79.5%
[19]
  viability, T/C: 77.1%
[20]
  viability, T/C: 83.9%
[33]
  viability, T/C: 63.6%
[34]
  viability, T/C: 65.4%
[21]
  viability, T/C: 70.3%
[22]
  viability, T/C: 56.6%
[23]
  viability, T/C: 68.5%
[24]
  viability, T/C: 74%
[35]
  viability, T/C: 39.6%
[36]
  viability, T/C: 66.4%

## Cn1nccc1Nc1nccc(-c2ccn(C(CO)c3ccc(Cl)c(F)c3)c(=O)c2)n1 (stereo unspecified) + CC(Nc1ccc2c(c1)OCCn1cc(N3C(=O)OCC3C(F)F)nc1-2)C(N)=O
Second compound 0.00316 µM
  IC50: > 10 µM
Second compound 0.01 µM
  IC50: > 10 µM
Second compound 0.0316 µM
  IC50: > 10 µM
Second compound 0.1 µM
  IC50: > 10 µM
Second compound 0.316 µM
  IC50: > 10 µM
Second compound 1 µM
  IC50: > 10 µM
[1]
  viability, T/C: 92.2%
[2]
  viability, T/C: 114%
[3]
  viability, T/C: 88.5%
[4]
  viability, T/C: 102%
[25]
  viability, T/C: 90.7%
[26]
  viability, T/C: 79.9%
[5]
  viability, T/C: 124%
[6]
  viability, T/C: 109%
[7]
  viability, T/C: 101%
[8]
  viability, T/C: 89.1%
[27]
  viability, T/C: 91.9%
[28]
  viability, T/C: 74.8%
[9]
  viability, T/C: 118%
[10]
  viability, T/C: 102%
[11]
  viability, T/C: 92.6%
[12]
  viability, T/C: 80%
[29]
  viability, T/C: 83.6%
[30]
  viability, T/C: 77.6%
[13]
  viability, T/C: 113%
[14]
  viability, T/C: 90.6%
[15]
  viability, T/C: 124%
[16]
  viability, T/C: 111%
[31]
  viability, T/C: 101%
[32]
  viability, T/C: 73.9%
[17]
  viability, T/C: 74.3%
[18]
  viability, T/C: 105%
[19]
  viability, T/C: 86.5%
[20]
  viability, T/C: 83%
[33]
  viability, T/C: 85%
[34]
  viability, T/C: 81.7%
[21]
  viability, T/C: 79.2%
[22]
  viability, T/C: 72.4%
[23]
  viability, T/C: 84.3%
[24]
  viability, T/C: 89.1%
[35]
  viability, T/C: 75.5%
[36]
  viability, T/C: 83.5%
